According to patent US11059773B2, “Type-B fenolamine crystal form, preparation method, composition and use thereof” (INSTITUTE OF MATARIA MEDICA, CHINESE ACADEMY OF MEDICAL …, priority 2017, dated 2021):
Entries after “also recorded” stand apart in the source; their conditions may differ.

Tests used:
[1] = Stability of type-B fenolamine crystal form solid (influencing factors: high temperature, high humidity, illumination); type: physicochemical; conditions: starting ethanol content 2.58%
Procedure: Type-B fenolamine crystal form samples (having a crystallized ethanol content of 2.58%) were placed in open clean watch glasses, and kept under conditions of a high temperature of 60° C., a high temperature of 40° C., and 25° C., a relative humidity of 90%±5%, and illumination at 4500 lx±500 lx for 10 days, and samples were taken on Days 0, 5, and 10. Powder X-ray diffraction (with a resultant pattern consistent to that in FIG. 1) and gas chromatography means were used for analysis.

[2] = Dissolution of type-B fenolamine crystal form in six solvent systems; type: physicochemical
Procedure: The solubility was evaluated by using a type-B fenolamine crystal form sample (fenolamine:ethanol=1:0.2) having a crystallized ethanol content of 2.0%.
The solvent systems were selected by: (1) referring to solvent systems used in the dissolution determination method in the Appendix of the Pharmacopoeia; (2) referring to the digestive solution pH in various organs of an organism; (3) improving the solubility of water-insoluble drugs. Based the above three references, solvent systems with six pH values were set up: a 0.1 N hydrochloric acid solution with pH 1.2; an acetate buffer solution with pH 4.5; a phosphate buffer solution with pH 6.5; an water solution with pH 6.7; a 0.2% SDS solution with pH 7.0; a 0.5% SDS solution with pH 7.3.
Measurement was carried out according to the solubility determination method (“Guidelines for Dissolution Test Technique of General Oral Solid Preparations (Draft)”, October 2012, the Drug Review Center). With the percentage of the samples dissolved by mass calculated from the absorbance data, solubility curves were respectively drawn with time as abscissa and dissolved contents as ordinate and shown in FIG. 10.

COc1ccc(OC)c(/C(=C\c2ccc(O)c(OC)c2)C(=O)NCCc2ccc(O)cc2)c1 [type-B fenolamine crystal form, trans-2-(2,5-dimethoxyphenyl)-3-(4-hydroxy-3-methoxyphenyl)-N-(4-hydroxyphenylethyl) acrylamide]
Stability of the crystal form (powder X-ray diffraction and gas chromatography) ([1]; 60° C., 40° C., 25° C. with RH 90%±5%, 4500 lx±500 lx, 10 days): stable under conditions of high temperature, high humidity and light illumination | Crystallized ethanol content after storage ([1]; 10 days at high temperature): about 2.1% | Dissolution (percentage of sample dissolved by mass) ([2]; 0.1N hydrochloric acid pH 1.2, 5 min): 0.00% | Dissolution (percentage of sample dissolved by mass) ([2]; 0.1N hydrochloric acid pH 1.2, 15 min): 0.00% | Dissolution (percentage of sample dissolved by mass) ([2]; 0.1N hydrochloric acid pH 1.2, 30 min): 2.35% | Dissolution (percentage of sample dissolved by mass) ([2]; 0.1N hydrochloric acid pH 1.2, 60 min): 5.75% | Dissolution (percentage of sample dissolved by mass) ([2]; 0.1N hydrochloric acid pH 1.2, 120 min): 11.42% | Dissolution (percentage of sample dissolved by mass) ([2]; 0.1N hydrochloric acid pH 1.2, 180 min): 14.07% | Dissolution (percentage of sample dissolved by mass) ([2]; 0.1N hydrochloric acid pH 1.2, 240 min): 18.54% | Dissolution (percentage of sample dissolved by mass) ([2]; 0.1N hydrochloric acid pH 1.2, 300 min): 20.04% | Dissolution (percentage of sample dissolved by mass) ([2]; 0.1N hydrochloric acid pH 1.2, 360 min): 23.69% | Dissolution (percentage of sample dissolved by mass) ([2]; 0.1N hydrochloric acid pH 1.2, 420 min): 25.07% | Dissolution (percentage of sample dissolved by mass) ([2]; 0.2% SDS pH 7.0, 5 min): 21.57% | Dissolution (percentage of sample dissolved by mass) ([2]; 0.2% SDS pH 7.0, 15 min): 32.50% | Dissolution (percentage of sample dissolved by mass) ([2]; 0.2% SDS pH 7.0, 30 min): 42.43% | Dissolution (percentage of sample dissolved by mass) ([2]; 0.2% SDS pH 7.0, 60 min): 59.66% | Dissolution (percentage of sample dissolved by mass) ([2]; 0.2% SDS pH 7.0, 120 min): 91.98% | Dissolution (percentage of sample dissolved by mass) ([2]; 0.2% SDS pH 7.0, 180 min): 92.35% | Dissolution (percentage of sample dissolved by mass) ([2]; 0.2% SDS pH 7.0, 240 min): 95.75% | Dissolution (percentage of sample dissolved by mass) ([2]; 0.2% SDS pH 7.0, 300 min): 95.82% | Dissolution (percentage of sample dissolved by mass) ([2]; 0.2% SDS pH 7.0, 360 min): 95.90% | Dissolution (percentage of sample dissolved by mass) ([2]; 0.2% SDS pH 7.0, 420 min): 95.93% | Dissolution (percentage of sample dissolved by mass) ([2]; 0.5% SDS pH 7.3, 5 min): 35.04% | Dissolution (percentage of sample dissolved by mass) ([2]; 0.5% SDS pH 7.3, 15 min): 55.30% | Dissolution (percentage of sample dissolved by mass) ([2]; 0.5% SDS pH 7.3, 30 min): 73.32% | Dissolution (percentage of sample dissolved by mass) ([2]; 0.5% SDS pH 7.3, 60 min): 86.90% | Dissolution (percentage of sample dissolved by mass) ([2]; 0.5% SDS pH 7.3, 120 min): 97.35% | Dissolution (percentage of sample dissolved by mass) ([2]; 0.5% SDS pH 7.3, 180 min): 97.69% | Dissolution (percentage of sample dissolved by mass) ([2]; 0.5% SDS pH 7.3, 240 min): 98.40% | Dissolution (percentage of sample dissolved by mass) ([2]; 0.5% SDS pH 7.3, 300 min): 98.47% | Dissolution (percentage of sample dissolved by mass) ([2]; 0.5% SDS pH 7.3, 360 min): 98.51% | Dissolution (percentage of sample dissolved by mass) ([2]; 0.5% SDS pH 7.3, 420 min): 100.00% | Dissolution (percentage of sample dissolved by mass) ([2]; Acetate buffer pH 4.5, 5 min): 0.00% | Dissolution (percentage of sample dissolved by mass) ([2]; Acetate buffer pH 4.5, 15 min): 0.00% | Dissolution (percentage of sample dissolved by mass) ([2]; Acetate buffer pH 4.5, 30 min): 0.49% | Dissolution (percentage of sample dissolved by mass) ([2]; Acetate buffer pH 4.5, 60 min): 2.57% | Dissolution (percentage of sample dissolved by mass) ([2]; Acetate buffer pH 4.5, 120 min): 7.54% | Dissolution (percentage of sample dissolved by mass) ([2]; Acetate buffer pH 4.5, 180 min): 11.34% | Dissolution (percentage of sample dissolved by mass) ([2]; Acetate buffer pH 4.5, 240 min): 15.82% | Dissolution (percentage of sample dissolved by mass) ([2]; Acetate buffer pH 4.5, 300 min): 19.51% | Dissolution (percentage of sample dissolved by mass) ([2]; Acetate buffer pH 4.5, 360 min): 20.15% | Dissolution (percentage of sample dissolved by mass) ([2]; Acetate buffer pH 4.5, 420 min): 20.71% | Dissolution (percentage of sample dissolved by mass) ([2]; Phosphate buffer pH 6.5, 5 min): 49.51% | Dissolution (percentage of sample dissolved by mass) ([2]; Phosphate buffer pH 6.5, 15 min): 49.81% | Dissolution (percentage of sample dissolved by mass) ([2]; Phosphate buffer pH 6.5, 30 min): 49.89% | Dissolution (percentage of sample dissolved by mass) ([2]; Phosphate buffer pH 6.5, 60 min): 49.96% | Dissolution (percentage of sample dissolved by mass) ([2]; Phosphate buffer pH 6.5, 120 min): 51.08% | Dissolution (percentage of sample dissolved by mass) ([2]; Phosphate buffer pH 6.5, 180 min): 51.72% | Dissolution (percentage of sample dissolved by mass) ([2]; Phosphate buffer pH 6.5, 240 min): 51.87% | Dissolution (percentage of sample dissolved by mass) ([2]; Phosphate buffer pH 6.5, 300 min): 53.32% | Dissolution (percentage of sample dissolved by mass) ([2]; Phosphate buffer pH 6.5, 360 min): 53.40% | Dissolution (percentage of sample dissolved by mass) ([2]; Phosphate buffer pH 6.5, 420 min): 53.47% | Dissolution (percentage of sample dissolved by mass) ([2]; Water pH 6.7, 5 min): 0.00% | Dissolution (percentage of sample dissolved by mass) ([2]; Water pH 6.7, 15 min): 0.34% | Dissolution (percentage of sample dissolved by mass) ([2]; Water pH 6.7, 30 min): 2.01% | Dissolution (percentage of sample dissolved by mass) ([2]; Water pH 6.7, 60 min): 5.26% | Dissolution (percentage of sample dissolved by mass) ([2]; Water pH 6.7, 120 min): 11.42% | Dissolution (percentage of sample dissolved by mass) ([2]; Water pH 6.7, 180 min): 20.22% | Dissolution (percentage of sample dissolved by mass) ([2]; Water pH 6.7, 240 min): 21.94% | Dissolution (percentage of sample dissolved by mass) ([2]; Water pH 6.7, 300 min): 26.04% | Dissolution (percentage of sample dissolved by mass) ([2]; Water pH 6.7, 360 min): 28.96% | Dissolution (percentage of sample dissolved by mass) ([2]; Water pH 6.7, 420 min): 32.13% | Solubility in six solvent systems imitating different pH environments in human body (in words) ([2]; compared with type-F crystal form): good solubility; also recorded: superior to the type-F crystal form
